Results taken from patent US20220347171A1, “TREATMENT OF PRURIGO NODULARIS” (TREVI THERAPEUTICS, INC., priority 2016, published 2022).
Counter-ions that a name gives are not always drawn.

System: prurigo nodularis patients
Test: TR03ext (Example 3): PAS prurigo lesions with excoriations/crusts; Stage 0 0%, Stage 1 1%-25%, Stage 2 26%-50%, Stage 3 51%-75%, Stage 4 76%-100%
Assay type: in vivo, human
Text: In some embodiments, after the treatment the patient experiences a substantial reduction of itch that is characterized by at least one category/stage improvement in Prurigo Activity Score (PAS). In particular embodiments, after the treatment the patient experiences a reduction of itch that results in at least one category/stage improvement in Prurigo Activity Score (PAS) domains of number of prurigo lesions, prurigo lesions with excoriations/crusts and/or healed prurigo lesions. The PAS consists of 7 qualitative and quantitative measurements related to the examination of the skin. Type, number, distribution, affected body parts, and quantitative number of lesions in a representative body part are documented. The biggest lesion and the most representative lesion are monitored with documentation of height and area measurements. Prurigo lesion activity is recorded as a percentages based on their stage (0-4). In some embodiments, number measurements of lesions on the body have four numerical categories: 0, 1-19, 20-100 and >100. In some embodiments, prurigo lesions with excoriations/crusts have five categories: Stage 4 (76%-100%), Stage 3 (51%-75%), Stage 2 (26%-50%), Stage 1 (1-25%) and Stage 0 (0%). In some embodiments, healed prurigo lesions have five categories: Stage 4 (0-24%), Stage 3 (25-49%), Stage 2 (50-74%), Stage 1 (75%-99%), Stage 0 (100%).
This clinical study was a Phase 2 Open Label Extension Study (clinical study TR03ext) of the randomized, double-blind, 3-parallel arm, placebo controlled dose ranging study described in Example 2. All those subjects who were randomized, and then completed Example 2 study, were eligible to participate in the Extension Study.
The primary endpoint was a description of the overall incidence and nature of Treatment-Emergent AEs (TEAES) during weeks 5-50 of the study. Exploratory efficacy endpoints included Change from Baseline patient reported outcome measures of Worst itch NRS, itchy VRS and ItchyQoL, by Treatment Period study visit and Baseline NRS score. There was also an assessment of any potential skin lesion changes over time using the metrics of the PAS.
Patients in Extension Study were titrated over a dose range of 30 mg QD to 180 mg BID based on tolerability. The selected dose range was based on Example 2 study whereby patients were titrated from a 30 mg QD dose either to 30 mg BID, 60 mg BID, 90 mg BID, 120 mg BID or a 180 mg BID dose. The highest dose proposed was 180 mg BID (360 mg daily dose), and was well below the highest recommended daily treatment of 160 mg IV (equivalent to 960 mg oral) for the current marketed parenteral administered product.
Table 15, 16 and 17 display excoriations/crusts lesion PAS data for subjects who received treatment for at least 6 months, subjects who received treatment for at least 9 months and subjects who completed 50 weeks of treatment in the study, respectively. The status of the prurigo lesions with excoriations/crusts is reported as percentages based on their stage (0-4) using a grading system: Stage 0 (0% excoriations/crusts); Stage 1 (1%-25% excoriations/crusts); Stage 2 (26%-50% excoriations/crusts); Stage 3 (51%-75% excoriations/crusts); Stage 4: (76%-100% excoriations/crusts). Thus, the higher the stage, the more severe is the prurigo skin pathology.

[1] = treatment for at least 6 months

For `Oc1ccc2c3c1OC1[C@@H](O)CC[C@@]4(O)[C@@H](C2)N(CC2CCC2)CC[C@]314` (stereo partly drawn) [Nalbuphine, 17-(cyclobutylmethyl)-4,5α-epoxymorphinian-3, 6α, 14-triol, hydrochloride], the “Subjects with at least one category improvement (lesser stage) in the percentage of excoriations/crust lesions (PAS)” value (after 6 months, 13/16) was 81.2%, the “Subjects with at least one category improvement (lesser stage) in the percentage of excoriations/crust lesions (PAS)” value (after 9 months, 9/13) was 69.2% and the “Subjects with at least one category improvement (lesser stage) in the percentage of excoriations/crust lesions (PAS)” value (after 12 months, 8/12) was 66.6%. The “Excoriated/Crusts PAS Category Shift: Baseline Stage 0 to Last Observed Stage 0” value (treatment for 50 weeks) was 1 (7.1%) Number (%) of Subjects, the “Excoriated/Crusts PAS Category Shift: Baseline Stage 0 to Last Observed Stage 1” value (treatment for 50 weeks) was 0 Number (%) of Subjects and the “Excoriated/Crusts PAS Category Shift: Baseline Stage 0 to Last Observed Stage 2” value (treatment for 50 weeks) was 0 Number (%) of Subjects. The “Excoriated/Crusts PAS Category Shift: Baseline Stage 0 to Last Observed Stage 3” value (treatment for 50 weeks) was 0 Number (%) of Subjects, the “Excoriated/Crusts PAS Category Shift: Baseline Stage 0 to Last Observed Stage 4” value (treatment for 50 weeks) was 0 Number (%) of Subjects and the “Excoriated/Crusts PAS Category Shift: Baseline Stage 1 to Last Observed Stage 0” value (treatment for 50 weeks) was 0 Number (%) of Subjects. The “Excoriated/Crusts PAS Category Shift: Baseline Stage 1 to Last Observed Stage 1” value (treatment for 50 weeks) was 1 (7.7%) Number (%) of Subjects, the “Excoriated/Crusts PAS Category Shift: Baseline Stage 1 to Last Observed Stage 2” value (treatment for 50 weeks) was 0 Number (%) of Subjects and the “Excoriated/Crusts PAS Category Shift: Baseline Stage 1 to Last Observed Stage 3” value (treatment for 50 weeks) was 0 Number (%) of Subjects. For the same molecule, the “Excoriated/Crusts PAS Category Shift: Baseline Stage 1 to Last Observed Stage 4” value (treatment for 50 weeks) was 1 (7.7%) Number (%) of Subjects, the “Excoriated/Crusts PAS Category Shift: Baseline Stage 2 to Last Observed Stage 0” value (treatment for 50 weeks) was 0 Number (%) of Subjects and the “Excoriated/Crusts PAS Category Shift: Baseline Stage 2 to Last Observed Stage 1” value (treatment for 50 weeks) was 5 (38.5%) Number (%) of Subjects. For the same molecule, the “Excoriated/Crusts PAS Category Shift: Baseline Stage 2 to Last Observed Stage 2” value (treatment for 50 weeks) was 0 Number (%) of Subjects, the “Excoriated/Crusts PAS Category Shift: Baseline Stage 2 to Last Observed Stage 3” value (treatment for 50 weeks) was 0 Number (%) of Subjects and the “Excoriated/Crusts PAS Category Shift: Baseline Stage 2 to Last Observed Stage 4” value (treatment for 50 weeks) was 0 Number (%) of Subjects. For the same molecule, the “Excoriated/Crusts PAS Category Shift: Baseline Stage 3 to Last Observed Stage 0” value (treatment for 50 weeks) was 0 Number (%) of Subjects, the “Excoriated/Crusts PAS Category Shift: Baseline Stage 3 to Last Observed Stage 1” value (treatment for 50 weeks) was 0 Number (%) of Subjects and the “Excoriated/Crusts PAS Category Shift: Baseline Stage 3 to Last Observed Stage 2” value (treatment for 50 weeks) was 2 (15.4%) Number (%) of Subjects. The “Excoriated/Crusts PAS Category Shift: Baseline Stage 3 to Last Observed Stage 3” value (treatment for 50 weeks) was 1 (7.7%) Number (%) of Subjects, the “Excoriated/Crusts PAS Category Shift: Baseline Stage 3 to Last Observed Stage 4” value (treatment for 50 weeks) was 0 Number (%) of Subjects and the “Excoriated/Crusts PAS Category Shift: Baseline Stage 4 to Last Observed Stage 0” value (treatment for 50 weeks) was 1 (7.7%) Number (%) of Subjects. For the same molecule, the “Excoriated/Crusts PAS Category Shift: Baseline Stage 4 to Last Observed Stage 1” value (treatment for 50 weeks) was 0 Number (%) of Subjects, the “Excoriated/Crusts PAS Category Shift: Baseline Stage 4 to Last Observed Stage 2” value (treatment for 50 weeks) was 0 Number (%) of Subjects and the “Excoriated/Crusts PAS Category Shift: Baseline Stage 4 to Last Observed Stage 3” value (treatment for 50 weeks) was 0 Number (%) of Subjects. The “Excoriated/Crusts PAS Category Shift: Baseline Stage 4 to Last Observed Stage 4” value (treatment for 50 weeks) was 1 (7.7%) Number (%) of Subjects, the “Excoriated/Crusts PAS: Last Observed PAS Result Stage 0” value (treatment for 50 weeks) was 2 (15.4) Number (%) of Subjects and the “Excoriated/Crusts PAS: Last Observed PAS Result Stage 1” value (treatment for 50 weeks) was 6 (46.2) Number (%) of Subjects. For the same molecule, the “Excoriated/Crusts PAS: Last Observed PAS Result Stage 2” value (treatment for 50 weeks) was 2 (15.4) Number (%) of Subjects, the “Excoriated/Crusts PAS: Last Observed PAS Result Stage 3” value (treatment for 50 weeks) was 1 (7.7) Number (%) of Subjects and the “Excoriated/Crusts PAS: Last Observed PAS Result Stage 4” value (treatment for 50 weeks) was 2 (15.4) Number (%) of Subjects. For the same molecule, the “Excoriated/Crusts PAS Category Shift: Baseline Stage 0 to Last Observed Stage 0” value [1] was 1 (5.9%) Number (%) of Subjects, the “Excoriated/Crusts PAS Category Shift: Baseline Stage 0 to Last Observed Stage 1” value [1] was 0 Number (%) of Subjects and the “Excoriated/Crusts PAS Category Shift: Baseline Stage 0 to Last Observed Stage 2” value [1] was 0 Number (%) of Subjects. The “Excoriated/Crusts PAS Category Shift: Baseline Stage 0 to Last Observed Stage 3” value [1] was 0 Number (%) of Subjects, the “Excoriated/Crusts PAS Category Shift: Baseline Stage 0 to Last Observed Stage 4” value [1] was 0 Number (%) of Subjects and the “Excoriated/Crusts PAS Category Shift: Baseline Stage 1 to Last Observed Stage 0” value [1] was 0 Number (%) of Subjects. For the same molecule, the “Excoriated/Crusts PAS Category Shift: Baseline Stage 1 to Last Observed Stage 1” value [1] was 1 (5.9%) Number (%) of Subjects, the “Excoriated/Crusts PAS Category Shift: Baseline Stage 1 to Last Observed Stage 2” value [1] was 0 Number (%) of Subjects and the “Excoriated/Crusts PAS Category Shift: Baseline Stage 1 to Last Observed Stage 3” value [1] was 0 Number (%) of Subjects. The “Excoriated/Crusts PAS Category Shift: Baseline Stage 1 to Last Observed Stage 4” value [1] was 1 (5.9%) Number (%) of Subjects, the “Excoriated/Crusts PAS Category Shift: Baseline Stage 2 to Last Observed Stage 0” value [1] was 1 (5.9%) Number (%) of Subjects and the “Excoriated/Crusts PAS Category Shift: Baseline Stage 2 to Last Observed Stage 1” value [1] was 5 (29.4%) Number (%) of Subjects. For the same molecule, the “Excoriated/Crusts PAS Category Shift: Baseline Stage 2 to Last Observed Stage 2” value [1] was 0 Number (%) of Subjects.
